Measured values taken from ChEMBL document CHEMBL4402585 (J Med Chem, 2020).
Calls of active or inactive are those of the source. No cut-off for these calls is given here.

How the values were obtained:
[1] = Volume of distribution at steady state in mouse at 3 mg/kg, iv by LC-MS/MS analysis; assay type: ADME, organism-based; settings: in vivo, read-out: Vdss
[2] = Cmax in mouse at 3 mg/kg, po by LC-MS/MS analysis; assay type: ADME, organism-based; set-up: dose 3 mg/kg, route oral; settings: in vivo
[3] = AUC (0 to t) in Sprague-Dawley rat at 3 mg/kg, po by LC-MS/MS analysis; assay type: ADME, organism-based; settings: in vivo
[4] = Oral bioavailability in Sprague-Dawley rat at 3 mg/kg by LC-MS/MS analysis; assay type: ADME, organism-based; settings: in vivo
[5] = Clearance in mouse liver microsomes at 0.1 uM preincubated for 10 mins followed by NADPH addition and measured up to 60 mins by LC-MS/MS analysis; assay type: ADME, Microsome; settings: 1 h
[6] = Half life in human liver microsomes at 0.1 uM preincubated for 10 mins followed by NADPH addition and measured up to 60 mins by LC-MS/MS analysis; assay type: ADME, Microsome
[7] = Clearance in rat liver microsomes at 0.1 uM preincubated for 10 mins followed by NADPH addition and measured up to 60 mins by LC-MS/MS analysis; assay type: ADME, Microsome; settings: 1 h
[8] = Half life in rat liver microsomes at 0.1 uM preincubated for 10 mins followed by NADPH addition and measured up to 60 mins by LC-MS/MS analysis; assay type: ADME, Microsome
MM1.S = assay: Antiproliferative activity against human MM1S cells assessed as reduction in cell viability measured after 72 hrs by Celltitre-glo luminescence assay; assay type: functional, cell-based
[9] = Half life in monkey liver microsomes at 0.1 uM preincubated for 10 mins followed by NADPH addition and measured up to 60 mins by LC-MS/MS analysis; assay type: ADME, Macaca mulatta, Microsome; settings: rhesus monkey
MV4-11 [10] = assay: Cell cycle arrest in human MV4-11 cells assessed as increase in accumulation at G1-phase at 31.25 nM measured after 24 hrs by propidium iodide staining based flow cytometry; assay type: functional
[11] = Half life in mouse at 3 mg/kg, po by LC-MS/MS analysis; assay type: ADME, organism-based; settings: in vivo
Cytochrome P450 2D6 = Cytochrome P450 2D6 (Homo sapiens, UniProt P10635); assay: Inhibition of CYP2D6 in human liver microsomes using dextromethorphan as substrate preincubated for 10 mins followed by NADPH addition and measured after 15 mins by LC-MS/MS analysis; assay type: ADME
Cytochrome P450 2D6, sequence (P10635 whole entry): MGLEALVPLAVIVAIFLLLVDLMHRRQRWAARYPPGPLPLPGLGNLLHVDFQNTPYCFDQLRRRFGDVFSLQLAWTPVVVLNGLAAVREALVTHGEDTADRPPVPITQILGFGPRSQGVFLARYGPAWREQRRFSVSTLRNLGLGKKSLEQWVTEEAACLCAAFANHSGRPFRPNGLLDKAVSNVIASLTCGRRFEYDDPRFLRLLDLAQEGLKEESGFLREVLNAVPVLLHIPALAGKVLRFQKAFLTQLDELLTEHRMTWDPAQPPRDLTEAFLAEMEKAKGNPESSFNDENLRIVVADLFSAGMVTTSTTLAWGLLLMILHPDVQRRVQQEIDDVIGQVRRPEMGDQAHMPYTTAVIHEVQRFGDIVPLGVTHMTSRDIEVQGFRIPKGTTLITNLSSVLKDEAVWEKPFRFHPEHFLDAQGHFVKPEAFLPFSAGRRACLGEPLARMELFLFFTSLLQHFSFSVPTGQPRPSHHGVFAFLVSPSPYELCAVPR

[12] = Half life in mouse liver microsomes at 0.1 uM preincubated for 10 mins followed by NADPH addition and measured up to 60 mins by LC-MS/MS analysis; assay type: ADME, Microsome
[13] = AUC (0 to t) in mouse at 3 mg/kg, iv by LC-MS/MS analysis; assay type: ADME, organism-based; settings: in vivo
[14] = Clearance in monkey liver microsomes at 0.1 uM preincubated for 10 mins followed by NADPH addition and measured up to 60 mins by LC-MS/MS analysis; assay type: ADME, Macaca mulatta, Microsome; settings: rhesus monkey, 1 h
MV4-11 [15] = assay: Antitumor activity against human MV4-11 cells xenografted in mouse assessed as tumor growth inhibition at 6.25 mg/kg, po administered for 28 days and measured every 2 to 3 days during compound dosing relative to control; assay type: functional; settings: MV4-11, po, read-out: TGI

- Vd [1]: 0.782 L/kg
- Cmax [2]: 399 ng/mL
- AUC(0-t) [3]: 884 ng·h/mL
- bioavailability [4]: 34.7%
- Microsomal intrinsic clearance [5]: 25.4 mL/min/g
- half-life at 0.1 µM [6]: 2.87 h
- Intrinsic clearance [7]: 64.8 mL/min/g
- half-life at 0.1 µM [8]: 0.54 h
- IC50 (MM1.S): 15.9 nM
- half-life at 0.1 µM [9]: 0.817 h
- half-life [11]: 1.3 h
- IC50 (Cytochrome P450 2D6): > 20000 nM
- half-life at 0.1 µM [12]: 1.38 h
- AUC(0-t) [13]: 3270 ng·h/mL
- CLH [14]: 42.7 mL/min/g
SMILES: CCS(=O)(=O)Cc1cnc(Oc2ccc(F)cc2F)c(-c2cc(C)c3c(=O)[nH]ccn23)c1
- Activity (MV4-11 [10]): Active
- inhibition in vivo at 6.25 mg/kg (MV4-11 [15]): 76.4%
